Patent publication US8481459B2, “Chemical inhibitors of ethylene biosynthesis” (Academia Sinica, priority 2010, dated 2013)

Test system: gene expression in etiolated eto1-4 seedlings
Assay: Transcriptional profiling (ATH1 GeneChip microarray) of etiolated eto1-4 seedlings
Type: in vivo, Arabidopsis thaliana
Conditions: ratio eto1-4 treated to eto1-4 (no treatment)
Protocol: For chemical treatments, seeds were sown on 0.5×MS agar medium supplemented with 10 μM chemicals (AVG, compounds 9393, 9370, and 7303) or DMSO (as control). Arabidopsis seeds were stratified in the dark at 4° C. for 4 days, then germinated in the dark for 3 days at 22° C. Approximately 2,000 etiolated seedlings of the wild type or eto1-4 were used to collect tissues for preparation of total RNA in each microarray experiment with Arabidopsis ATH1 GeneChip (Affymetrix). Extraction of RNA followed an established protocol (Chang, et al. (1993) Plant Mol. Biol. Rep. 11, 113-117). Total RNA (10 μg) was used to prepare biotinylated cRNA for hybridization to ATH1 GeneChip in the experiments disclosed herein. Experiments were repeated by 2 independent biological duplicates, and candidate genes present in both experiments were selected for further analysis. The MASS method was used for data analysis and normalization by all sample medium. Candidate genes were selected by the following criteria. First, genes with 1.5-fold differential expression between the wild type and eto1-4 were selected as the master gene pool, which was then used for comparison in treatments with AVG and individual exemplary compounds. Data were presented in hierarchical clustering and Venn diagram format. Agilent GeneSpring GX and Bioconductor software were used to analyze the expression profile data. Gene Ontology descriptions were generated by GeneSpring GX and further referred to the TAR GO database. Raw data are available in the GEO database (http://www.ncbi.nlm.nih.gov/geo) with Accession no. GSE20897.
The filtered and normalized expression data set from 22810 probes on the ATH1 Genechip was used for hierarchical clustering of gene expression profiles for comparison between AVG and the exemplary invention compounds in eto1-4. It was identified that 1,446 genes show at least 1.5-fold difference in expression between the WT and eto1-4 and used them as the master gene pool for clustering analysis (FIG. 7A). […] These genes likely contribute to the etiolated phenotype of eto1-4 by responding to elevated endogenous ethylene. To determine whether the exemplary compounds have specific r overlapping functions with AVG to suppress the eto1-4 phenotype, genes that are regulated by individual exemplary invention compounds and AVG for Venn diagram analysis were clustered (FIG. 7B). More than 63% of genes (356/561 for compound 9393; 389/561 for compound 9370; 399/561 for compound 7303; FIG. 7B) with expression associated with AVG were co-regulated by the exemplary invention compounds, which indicates an overlap function in suppression of the ethylene phenotype in eto1-4. […] Next genes co-regulated by all of the exemplary invention compounds and AVG were examined by performing a clustering analysis using the co-regulated genes identified in FIG. 7B: 356 (compound 9393 vs AVG), 389 (compound 9370 vs AVG) and 399 genes (compound 7303 vs AVG). It was uncovered that 276 genes were co-regulated by all of the exemplary invention compounds and AVG (FIG. 7C and Table 2). On the basis of GO descriptions generated by Gene Spring GX and TAIR database, the 276 genes were divided into subgroups related to their biological functions (Table 2). […] In addition, stress- and pathogenesis-related genes were among the co-regulated genes, possibly because ethylene is involved in both biotic and abiotic stresses.
Genes (1446 non-redundant loci) were selected by 1.5-fold differential expression between eto1-4 and WT as the master pool for analysis. These genes were used for comparison between chemical treatments by AVG and the exemplary invention compounds. The finalized 276 genes that are co-regulated by AVG and all of the exemplary invention compounds are shown. Locus ID also present in Nemhauser et al. (Nemhauser, et al. (2006) Cell 126, 467-475).

CC1(C)CC(=O)c2cnc(NC3CCCC3)nc2C1 [Compound 9393]
Signal Fold Change AT3G14850, unknown biological function: 0.29
Signal Fold Change AT3G15890 protein kinase: 1.98
Signal Fold Change AT3G16450 jacalin lectin protein: 2.09
Signal Fold Change AT3G16470 jacalin lectin protein: 4.09
Signal Fold Change AT3G16690, unknown biological function: 3.33
Signal Fold Change AT3G17680, unknown biological function: 0.33
Signal Fold Change AT3G20130 cytochrome P450: 1.72
Signal Fold Change AT3G21770 peroxidase 30: 1.57
Signal Fold Change AT3G22620 lipid transfer protein: 1.94
Signal Fold Change AT3G23150 ethylene receptor, putative (ETR2): 0.15
Signal Fold Change AT3G23800, unknown biological function: 0.46
Signal Fold Change AT3G24670, unknown biological function: 0.32
Signal Fold Change AT3G25710 bHLH protein: 2.27
Signal Fold Change AT3G25730 AP2-containing transcription factor: 0.26
Signal Fold Change AT3G25980 mitotic spindle checkpoint protein: 2.35
Signal Fold Change AT3G27580 protein kinase: 0.48
Signal Fold Change AT3G28290, unknown biological function: 0.29
Signal Fold Change AT3G29250 short-chain dehydrogenase: 4.05
Signal Fold Change AT3G30775 proline oxidase, mitochondrial: 2.13
Signal Fold Change AT3G43270 pectinesterase protein: 0.26
Signal Fold Change AT3G44820, response to light stimulus, phototropic-responsive NPH3 protein: 2.81
Signal Fold Change AT3G44990 endo-xyloglucan transferase: 0.28
Signal Fold Change AT3G45710 proton-dependent oligopeptide transport (POT) protein: 1.98
Signal Fold Change AT3G46130 myb transcription factor (MYB48): 2.63
Signal Fold Change AT3G46700 UDP-glucosyl transferase: 3.09
Signal Fold Change AT3G47210, unknown biological function: 2.53
Signal Fold Change AT3G47250, unknown biological function: 3.68
Signal Fold Change AT3G49780 phytosulfokines 3 (PSK3): 4.97
Signal Fold Change AT3G50660 steroid 22-alpha-hydroxylase: 4.32
Signal Fold Change AT3G51410, unknown biological function: 0.32
Signal Fold Change AT3G51970, unknown biological function: 2.49
Signal Fold Change AT3G52180 protein tyrosine phosphatase: 0.32
Signal Fold Change AT3G52920 expressed protein (defense response): 3.09
Signal Fold Change AT3G53540, unknown biological function: 0.38
Signal Fold Change AT3G56480, unknown biological function: 2.21
Signal Fold Change AT3G58710 WRKY transcription factor: 2.14
Signal Fold Change AT3G59370, unknown biological function: 2.91
Signal Fold Change AT3G59710 short-chain dehydrogenase: 0.39
Signal Fold Change AT3G59900, unknown biological function: 0.43
Signal Fold Change AT3G60520, unknown biological function: 0.27
Signal Fold Change AT3G61160 shaggy-related protein kinase beta/ASK-beta (ASK2): 3.26
Signal Fold Change AT4G00730 anthocyaninless2: 0.55
Signal Fold Change AT4G01410, unknown biological function: 0.40
Signal Fold Change AT4G03140 short-chain dehydrogenase: 0.41
Signal Fold Change AT4G08300, unknown biological function: 3.06
Signal Fold Change AT4G09570 calcium-dependent protein kinase: 0.36
Signal Fold Change AT4G10910, unknown biological function: 4.86
Signal Fold Change AT4G11190 disease resistance-responsive protein: 5.56
Signal Fold Change AT4G11280 ACC synthase 6: 1.87
Signal Fold Change AT4G11310 cysteine proteinase: 8.01
Signal Fold Change AT4G12080, unknown biological function: 1.88
Signal Fold Change AT4G12410 auxin-responsive protein: 2.76
Signal Fold Change AT4G12480 lipid transfer protein: 0.20
Signal Fold Change AT4G13210, unknown biological function: 0.29
Signal Fold Change AT4G15550 UDP-glucose:indole-3-acetate beta-D-glucosyltransferase: 0.36
Signal Fold Change AT4G15920, unknown biological function: 13.52
Signal Fold Change AT4G17220 expressed protein (cytoskeleton organization and biogenesis): 2.49
Signal Fold Change AT4G18340 glycosyl hydrolase: 2.57
Signal Fold Change AT4G23410 senescence-associated protein: 1.97
Signal Fold Change AT4G25780, unknown biological function: 9.02
Signal Fold Change AT4G26010 peroxidase: 0.45
Signal Fold Change AT4G28085, unknown biological function: 2.86
Signal Fold Change AT4G31000, unknown biological function: 0.55
Signal Fold Change AT4G32920, unknown biological function: 2.39
Signal Fold Change AT4G34560, unknown biological function: 2.00
Signal Fold Change AT4G34760 auxin-responsive protein: 0.20
Signal Fold Change AT4G35060 copper chaperone: 3.14
Signal Fold Change AT4G35150, unknown biological function: 0.32
Signal Fold Change AT4G36520, unknown biological function: 2.71
Signal Fold Change AT4G37220 stress-responsive protein: 7.29
Signal Fold Change AT4G38690, signal transduction, 1-phosphatidylinositol: 2.55
Signal Fold Change AT4G39210 ADP-glucose pyrophosphorylase: 0.44
Signal Fold Change AT4G39800 inositol-3-phosphate synthase isozyme 1: 2.16
Signal Fold Change AT4G39840, unknown biological function: 0.37
Signal Fold Change AT5G01210, unknown biological function: 0.33
Signal Fold Change AT5G01300, unknown biological function: 1.40
Signal Fold Change AT5G02260, cell wall organization and biogenesis, expansin (EXP9): 0.16
Signal Fold Change AT5G02540 short-chain dehydrogenase: 0.17
Signal Fold Change AT5G03160 DNAJ heat shock N-terminal domain-containing protein: 1.90
Signal Fold Change AT5G04080, unknown biological function: 2.48
Signal Fold Change AT5G05180, unknown biological function: 1.79
Signal Fold Change AT5G06200, unknown biological function: 1.94
Signal Fold Change AT5G08240, unknown biological function: 1.79
Signal Fold Change AT5G08260 serine carboxypeptidase S10 protein: 0.50
Signal Fold Change AT5G08370 alpha-galactosidase: 2.77
Signal Fold Change AT5G09980 expressed protein (defense response): 0.35
Signal Fold Change AT5G10720 sensory transduction histidine kinase: 0.48
Signal Fold Change AT5G11540, unknown biological function: 5.32
Signal Fold Change AT5G12170, response to cadmium ion, expressed protein: 0.36
Signal Fold Change AT5G13870 endo-xyloglucan transferase: 0.27
Signal Fold Change AT5G13910 AP2/EREBP-like transcription factor: 0.46
Signal Fold Change AT5G14780 formate dehydrogenase: 0.44
Signal Fold Change AT5G14920 gibberellin-regulated protein: 0.35
Signal Fold Change AT5G15290, unknown biological function: 2.43
Signal Fold Change AT5G15530 biotin carboxyl carrier protein 2: 0.54
Signal Fold Change AT5G15830 bZIP transcription factor protein: 3.94
Signal Fold Change AT5G18470, unknown biological function: 0.13
Signal Fold Change AT5G18670 beta-amylase: 0.50
Signal Fold Change AT5G18860, unknown biological function: 2.02
Signal Fold Change AT5G18970, unknown biological function: 2.49
Signal Fold Change AT5G19890 peroxidase: 0.13
Signal Fold Change AT5G19930, unknown biological function: 1.64
Signal Fold Change AT5G20410 monogalactosyldiacylglycerol synthase: 2.77
Signal Fold Change AT5G22310, unknown biological function: 0.37
Signal Fold Change AT5G22860 serine carboxypeptidase S28 protein: 2.63
Signal Fold Change AT5G23750, unknown biological function: 3.60
Signal Fold Change AT5G24870, unknown biological function: 2.16
Signal Fold Change AT5G25140 cytochrome P450: 4.21
Signal Fold Change AT5G25160 zinc finger (C2H2 type) protein: 2.60
Signal Fold Change AT5G25190 ethylene-responsive element-binding protein: 0.32
Signal Fold Change AT5G34940, unknown biological function: 0.49
Signal Fold Change AT5G37300, unknown biological function: 3.86
Signal Fold Change AT5G38930, unknown biological function: 0.33
Signal Fold Change AT5G39860 bHLH protein: 2.39
Signal Fold Change AT5G41900 hydrolase: 2.67
Signal Fold Change AT5G44410, unknown biological function: 3.37
Signal Fold Change AT5G44580, unknown biological function: 0.22
Signal Fold Change AT5G46890 lipid transfer protein: 3.64
Signal Fold Change AT5G47240, unknown biological function: 3.96
Signal Fold Change AT5G47330 palmitoyl protein thioesterase protein: 2.52
Signal Fold Change AT5G47450 major intrinsic protein: 2.24
Signal Fold Change AT5G47950, unknown biological function: 1.93
Signal Fold Change AT5G48490 lipid transfer protein: 9.12
Signal Fold Change AT5G48900, unknown biological function: 0.55
Signal Fold Change AT5G49900, unknown biological function: 2.24
Signal Fold Change AT5G50720 ABA-responsive protein (HVA22e): 2.52
Signal Fold Change AT5G52120 SKP1 interacting partner 3 protein: 5.39
Signal Fold Change AT5G53190, unknown biological function: 4.35
Signal Fold Change AT5G53830, unknown biological function: 0.40
Signal Fold Change AT5G56320, cell wall organization and biogenesis, expansin (EXP14): 3.15
Signal Fold Change AT5G58660, unknown biological function: 0.34
Signal Fold Change AT5G59540 oxidoreductase: 0.44
Signal Fold Change AT5G63450 cytochrome P450: 6.43
Signal Fold Change AT5G63650 serine/threonine protein kinase: 0.42
Signal Fold Change AT5G65970 seven transmembrane MLO protein: 2.60
Signal Fold Change AT5G66310, microtubule-based movement, kinesin motor protein: 0.48
Signal Fold Change AT5G66400 dehydrin (RAB18): 1.09
Signal Fold Change AT5G66440, unknown biological function: 0.30
Signal Fold Change AT5G66460 (1-4)-beta-mannan endohydrolase: 0.51
Signal Fold Change AT5G66780, unknown biological function: 0.78
